From patent publication US20140161720A1, “TREATMENT OF ANGIOGENIC- OR VASCULAR-ASSOCIATED DISEASES” (THE GENERAL HOSPITAL CORPORATION, priority 2011, published 2014)
Entries after “also recorded” stand apart in the source; their conditions may differ.

What was measured:
[1] = system: Rac1; test: Rac1 protein level by western blot in HUVECs; type: cell-based, human; conditions: HUVEC, 10 μM for 24 hours
Method: HUVEC cells were treated with 10 μM of DAL for 24 hours and then lysed. A western blot with anti-human Rac1 antibody is shown on top panel while the bottom panel represents a loading control. […] To enhance ubiquitination events, HUVEC cells were pretreated with the proteasome inhibitors lactacystin (2.5 mM) or MG-132 (0.2 mM) for one hour and subsequently treated with DAL (10 μM) of DAL for 24 hours. Duolink in situ was used for the detection of ubiquitinated Rac1 in DAL treated and untreated HUVEC cells. For the two Duolink PLA probes, primary mouse antibodies raised against human Rac1 and primary rabbit anti-ubiquitin were used. Fluorescent spots represent ubiquitinated Rac1. The nuclei with additionally stained DAPI.
However, protein levels of Rac1 were reduced after DAL treatment (FIG. 6B). Next, it was assessed whether DAL can enhance Rac1 ubiquitination and therefore promote or speed up degradation (31-34). For the detection of Rac1 ubiquitination in HUVECs, Rac1-ubiquitin binding in situ was identified using a Duolink molecular proximity assay. In this assay, molecules thought to interact are targeted with fluorescent antibodies in situ, and individual interactions generate a signal detectable by microscopy only if secondary antibodies are located in close proximity to each other. […]

[2] = system: HUVEC; test: Scratch wound-healing motility assay; type: cell-based, human; conditions: HUVEC monolayer, DAL 5 μM, 24 hours after wounding
Method: For F-actin visualization, HUVECs were plated and treated with saline or DAL (10 μM) for three hours. After fixing and permeabilizing these cultured cells, the cells were subsequently stained with phalloidin. […] Existing cordlike structures, when exposed to 10 μM of DAL for 3 hours, were also disrupted. […] HUVEC monolayers were disrupted mechanically with a pipette tip and the migration of cells to “heal” the wound was monitored using microscopy.
To assess whether DAL affects EC functions, in vitro models of vascular network formation from HUVECs were used. After overnight cultivation in matrigel, HUVECs spontaneously assemble into cord-like structures that resemble vascular networks. […] Since DAL affects actin cytoskeleton assembly, the effect of DAL on cell motility was next assessed. A scratch wound assay was utilized to study HUVEC motility based on the healing rate of a wounded monolayer.

[3] = system: vasculature in adult fish; test: Effect on vasculature in adult zebrafish; type: in vivo; conditions: mature vasculature
[4] = system: zebrafish caudal fin regenerating vessels; test: Caudal fin amputation, blood vessel regeneration; type: in vivo
Method: For the regeneration experiments, caudal fins of zebrafish were amputated at approximately the 50% proximal-distal level (21). The amputated fish were kept in individual 250-ml fish tanks, and at least five fish were used in each group. Staging for normal blood vessel regeneration was carried out at 25° C. with TG(fli1:EGFP)y1 fish, with the same fin ray and vessels of each fish was photographed at different time intervals during the course of the time-lapse study.
To examine whether DAL has a similar antivascular effect on neovasculature in adult zebrafish, neovascularization was induced by amputating the caudal fin at the ˜50% proximal-distal level and fin rays and vessels were imaged from each fish over time. In control zebrafish caudal fins, amputated blood vessels healed their ends by 24 h post-amputation and then reconnected arteries and veins through anastomosis, with blood flow resuming at wound sites by 48 h after amputation (FIG. 2B).

[5] = biological target: PI3K-alpha (Homo sapiens, UniProt P42336); test: Kinase inhibition screening; type: biochemical; conditions: 10-dose, starting at 100 μM, 1 μM ATP
Method: (§1) To determine kinase activity of DAL, various kinases (AKT1, AKT2, AKT3, PKA, PKC alpha, PKC delta, PAK1, EPHB2, EPHB4, p38 alpha, PI3K-alpha, PI3K-beta, PI3K-gamma, PI3K-delta) were screened in a 10-dose IC50 mode with threefold serial dilutions starting at 100 μM. Staurosporine was used as a control starting at 10 μM and the reactions were carried out at 1 μM ATP.
(§2) Without wishing to be bound by theory, DAL brings about its antivascular effects by destabilizing cell adhesion through the actin cytoskeleton. It was next sought to identify which specific adhesion pathway it targets. Mechanical attachment at cell-cell adherens and tight junctions is regulated by dynamic changes in the actin cytoskeleton. Adherens junctions are composed of E-cadherin/β-catenin complexes and are connected to the actin cytoskeleton via sa-catenin (25-26), while tight junctions consist of transmembrane claudins and occludin and are associated with the actin cytoskeleton via ZO proteins (27-28). Therefore, potential targets of DAL in signaling pathways involved in actin remodeling were evaluated. […] Then, it was sought to determine whether Rho-GTPase family members are targets for DAL due to the disruption of cell adhesion and actin network remodeling along with inhibited motility. Rho-GTPases (e.g., Rac1) plays an important role in actin cytoskeletal organization and is involved in the coordination of cell adhesion (29). Furthermore, Rac1 is responsible for stabilizing endothelial cell junctions by opposing actin remodeling by Rho (30). In order to migrate, cancer cells employ dynamic remodeling of the actin cytoskeleton, form protrusive structures and generate forces necessary to produce cell translocation in the process regulated by Rho-GTPase Rac1. To assess whether DAL can modulate Rac1, RhoA, and Cdc42 activities, affinity purification assays were employed to monitor RhoA and Cdc42/Rac1 activity. The Rho-Binding Domain (RBD) of the Rho effector protein rhotekin and the p21 Binding Domain (PBD) of the Cdc42/Rac effector protein p21 activated kinase 1 (PAK) were applied to pull down active forms of each protein.

[6] = biological target: PI3K-gamma (Homo sapiens, UniProt P48736); test: Kinase inhibition screening; type: biochemical; conditions: 10-dose, starting at 100 μM, 1 μM ATP
Method: as §1, §2

[7] = biological target: EPHB4 (Homo sapiens, UniProt P54760); test: Kinase inhibition screening; type: biochemical; conditions: 10-dose, starting at 100 μM, 1 μM ATP
Method: as §1, §2

[8] = biological target: p38 alpha (Homo sapiens, UniProt Q16539); test: Kinase inhibition screening; type: biochemical; conditions: 10-dose, starting at 100 μM, 1 μM ATP
Method: as §1, §2

[9] = biological target: PI3K-delta (Homo sapiens, UniProt O00329); test: Kinase inhibition screening; type: biochemical; conditions: 10-dose, starting at 100 μM, 1 μM ATP
Method: as §1, §2

[10] = biological target: PKA (Homo sapiens, UniProt P17612); test: Kinase inhibition screening; type: biochemical; conditions: 10-dose, starting at 100 μM, 1 μM ATP
Method: as §1, §2

[11] = biological target: PKC alpha (Homo sapiens, UniProt P17252); test: Kinase inhibition screening; type: biochemical; conditions: 10-dose, starting at 100 μM, 1 μM ATP
Method: as §1, §2

[12] = biological target: AKT2 (Homo sapiens, UniProt P31751); test: Kinase inhibition screening; type: biochemical; conditions: 10-dose, starting at 100 μM, 1 μM ATP
Method: as §1, §2

[13] = biological target: PAK1 (Homo sapiens, UniProt Q13153); test: Kinase inhibition screening; type: biochemical; conditions: 10-dose, starting at 100 μM, 1 μM ATP
Method: as §1, §2

Sequence of p38 alpha (Q16539 whole entry): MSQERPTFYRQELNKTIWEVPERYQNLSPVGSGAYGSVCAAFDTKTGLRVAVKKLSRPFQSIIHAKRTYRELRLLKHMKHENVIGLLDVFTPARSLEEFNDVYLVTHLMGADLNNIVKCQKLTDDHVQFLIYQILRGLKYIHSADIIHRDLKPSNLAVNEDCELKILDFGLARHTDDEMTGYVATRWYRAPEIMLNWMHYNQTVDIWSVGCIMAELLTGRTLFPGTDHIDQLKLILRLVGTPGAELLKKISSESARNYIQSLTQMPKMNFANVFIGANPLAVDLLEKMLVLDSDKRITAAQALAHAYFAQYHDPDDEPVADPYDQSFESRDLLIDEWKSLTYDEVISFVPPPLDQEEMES
Sequence of EPHB4 (P54760 16-987, species assumed): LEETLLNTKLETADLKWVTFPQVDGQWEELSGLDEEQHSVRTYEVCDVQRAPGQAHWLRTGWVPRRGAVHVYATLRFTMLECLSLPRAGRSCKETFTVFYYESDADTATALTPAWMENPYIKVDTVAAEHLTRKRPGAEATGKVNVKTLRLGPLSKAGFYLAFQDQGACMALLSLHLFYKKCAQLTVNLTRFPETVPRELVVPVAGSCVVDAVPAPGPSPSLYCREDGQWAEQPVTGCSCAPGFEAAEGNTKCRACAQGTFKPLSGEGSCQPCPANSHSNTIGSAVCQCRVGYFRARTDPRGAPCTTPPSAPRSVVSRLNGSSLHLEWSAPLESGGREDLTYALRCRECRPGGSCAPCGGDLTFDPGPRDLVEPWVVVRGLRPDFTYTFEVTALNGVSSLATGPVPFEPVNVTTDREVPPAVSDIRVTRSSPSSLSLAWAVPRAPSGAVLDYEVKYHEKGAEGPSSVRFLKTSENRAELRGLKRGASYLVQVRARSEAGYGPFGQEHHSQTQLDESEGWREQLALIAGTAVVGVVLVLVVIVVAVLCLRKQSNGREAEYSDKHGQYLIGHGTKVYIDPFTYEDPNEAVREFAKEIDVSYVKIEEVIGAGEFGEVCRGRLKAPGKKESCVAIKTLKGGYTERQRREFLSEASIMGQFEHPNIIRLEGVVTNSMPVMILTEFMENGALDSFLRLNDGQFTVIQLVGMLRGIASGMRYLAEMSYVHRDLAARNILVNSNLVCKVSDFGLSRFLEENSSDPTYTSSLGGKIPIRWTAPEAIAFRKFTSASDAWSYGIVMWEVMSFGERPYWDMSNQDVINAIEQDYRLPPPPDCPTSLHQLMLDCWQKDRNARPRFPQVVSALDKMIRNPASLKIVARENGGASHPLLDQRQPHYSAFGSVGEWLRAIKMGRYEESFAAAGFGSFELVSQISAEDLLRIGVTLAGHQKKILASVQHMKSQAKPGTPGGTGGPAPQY
Sequence of PI3K-alpha (P42336 whole entry, species assumed): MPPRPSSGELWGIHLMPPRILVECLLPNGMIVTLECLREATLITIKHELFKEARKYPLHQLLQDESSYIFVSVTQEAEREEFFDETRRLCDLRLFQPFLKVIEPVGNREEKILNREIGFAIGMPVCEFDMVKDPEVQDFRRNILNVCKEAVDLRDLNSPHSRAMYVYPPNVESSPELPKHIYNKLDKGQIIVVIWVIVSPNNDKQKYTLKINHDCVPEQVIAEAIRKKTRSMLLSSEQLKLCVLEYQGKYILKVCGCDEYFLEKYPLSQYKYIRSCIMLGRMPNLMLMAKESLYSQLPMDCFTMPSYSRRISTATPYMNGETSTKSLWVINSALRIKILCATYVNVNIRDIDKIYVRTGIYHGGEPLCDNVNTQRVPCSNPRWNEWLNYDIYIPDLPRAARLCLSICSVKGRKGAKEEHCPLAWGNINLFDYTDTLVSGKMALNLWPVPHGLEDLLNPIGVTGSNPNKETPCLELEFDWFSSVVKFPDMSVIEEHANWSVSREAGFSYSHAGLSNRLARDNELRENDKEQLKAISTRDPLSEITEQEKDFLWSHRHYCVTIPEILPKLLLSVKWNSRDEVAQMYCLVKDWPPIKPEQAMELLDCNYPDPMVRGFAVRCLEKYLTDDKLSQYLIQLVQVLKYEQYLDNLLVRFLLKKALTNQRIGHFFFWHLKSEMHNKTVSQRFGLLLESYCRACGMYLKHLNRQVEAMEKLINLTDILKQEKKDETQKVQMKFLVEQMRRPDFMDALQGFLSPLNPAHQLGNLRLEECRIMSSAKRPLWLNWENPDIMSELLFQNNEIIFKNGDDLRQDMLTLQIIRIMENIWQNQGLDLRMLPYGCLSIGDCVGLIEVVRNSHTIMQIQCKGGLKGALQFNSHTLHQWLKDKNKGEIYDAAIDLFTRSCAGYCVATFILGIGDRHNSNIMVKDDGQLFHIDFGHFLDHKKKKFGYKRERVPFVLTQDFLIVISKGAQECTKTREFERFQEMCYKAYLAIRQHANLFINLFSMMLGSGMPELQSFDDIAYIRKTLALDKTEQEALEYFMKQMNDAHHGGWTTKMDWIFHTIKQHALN
Sequence of PI3K-alpha (P27986 whole entry partner, species assumed): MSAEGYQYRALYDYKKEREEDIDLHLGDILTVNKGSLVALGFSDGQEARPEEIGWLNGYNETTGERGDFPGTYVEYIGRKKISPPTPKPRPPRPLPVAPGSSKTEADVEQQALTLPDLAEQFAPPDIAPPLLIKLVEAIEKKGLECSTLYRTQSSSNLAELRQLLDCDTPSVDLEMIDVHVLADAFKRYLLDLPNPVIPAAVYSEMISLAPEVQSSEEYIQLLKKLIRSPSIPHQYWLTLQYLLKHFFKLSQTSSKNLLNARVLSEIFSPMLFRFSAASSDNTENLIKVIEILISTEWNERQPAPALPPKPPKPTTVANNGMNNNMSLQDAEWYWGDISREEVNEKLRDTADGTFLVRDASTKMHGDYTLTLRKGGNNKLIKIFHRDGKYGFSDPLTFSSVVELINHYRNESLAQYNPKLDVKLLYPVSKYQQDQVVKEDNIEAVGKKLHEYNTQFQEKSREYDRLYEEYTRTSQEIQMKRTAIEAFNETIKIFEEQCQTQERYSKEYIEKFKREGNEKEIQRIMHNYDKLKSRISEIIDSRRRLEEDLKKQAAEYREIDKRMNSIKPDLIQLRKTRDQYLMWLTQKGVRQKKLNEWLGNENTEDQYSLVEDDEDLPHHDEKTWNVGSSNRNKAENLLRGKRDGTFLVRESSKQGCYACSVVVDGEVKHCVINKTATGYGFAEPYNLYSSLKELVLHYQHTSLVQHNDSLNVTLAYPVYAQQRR
Sequence of PAK1 (Q13153 whole entry): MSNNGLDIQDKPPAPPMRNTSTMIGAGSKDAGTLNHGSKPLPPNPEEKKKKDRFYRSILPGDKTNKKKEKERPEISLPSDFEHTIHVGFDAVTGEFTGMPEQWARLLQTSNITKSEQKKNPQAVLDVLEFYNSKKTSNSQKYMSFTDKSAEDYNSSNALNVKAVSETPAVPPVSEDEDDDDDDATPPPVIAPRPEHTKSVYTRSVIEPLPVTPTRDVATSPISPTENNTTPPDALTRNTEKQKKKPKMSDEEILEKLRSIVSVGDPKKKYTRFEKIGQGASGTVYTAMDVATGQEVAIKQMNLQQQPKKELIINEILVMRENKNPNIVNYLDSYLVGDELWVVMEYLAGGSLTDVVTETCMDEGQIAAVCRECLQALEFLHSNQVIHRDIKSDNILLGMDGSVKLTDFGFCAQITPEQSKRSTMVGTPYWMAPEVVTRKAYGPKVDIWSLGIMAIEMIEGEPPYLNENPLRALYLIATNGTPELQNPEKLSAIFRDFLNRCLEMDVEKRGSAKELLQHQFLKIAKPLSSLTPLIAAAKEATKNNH
Sequence of AKT2 (P31751 whole entry, species assumed): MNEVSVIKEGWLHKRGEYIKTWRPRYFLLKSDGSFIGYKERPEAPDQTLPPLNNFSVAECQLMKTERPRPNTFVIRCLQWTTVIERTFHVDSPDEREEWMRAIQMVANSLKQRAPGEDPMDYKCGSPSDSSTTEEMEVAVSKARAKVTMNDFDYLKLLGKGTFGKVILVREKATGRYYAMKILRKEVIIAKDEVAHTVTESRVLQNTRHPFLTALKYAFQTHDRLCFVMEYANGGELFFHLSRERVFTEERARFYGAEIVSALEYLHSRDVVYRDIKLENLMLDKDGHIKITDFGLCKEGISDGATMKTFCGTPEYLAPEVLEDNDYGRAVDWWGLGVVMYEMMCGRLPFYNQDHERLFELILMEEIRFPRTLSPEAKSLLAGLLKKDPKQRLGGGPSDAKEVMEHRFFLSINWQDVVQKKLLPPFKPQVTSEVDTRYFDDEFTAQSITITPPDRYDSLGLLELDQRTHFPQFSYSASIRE

CC1(C)C=CC2=C(O1)C(=O)c1ccccc1C2=O [DAL, dehydro-alpha-lapachone]
protein levels of Rac1 [1]: reduced; also recorded: decreases
wound healing / cell motility [2]: did not move and failed to close the wound; also recorded: slowed healing
effects on the vasculature in adult fish [3]: did not show any effects
anastomotic bridges at the amputation plane ([4]; 9 days after amputation): did not find such bridges
anastomosis and plexus formation of regenerating vessels ([4]; caudal fin after amputation): defects in anastomosis and plexus formation
effect on kinase PI3K-alpha [5]: no significant effects
effect on kinase PI3K-gamma [6]: no significant effects
effect on kinase EPHB4 [7]: no significant effects
effect on kinase p38 alpha [8]: no significant effects
effect on kinase PI3K-delta [9]: no significant effects
effect on kinase PKA [10]: no significant effects
effect on kinase PKC alpha [11]: no significant effects
effect on kinase AKT2 [12]: no significant effects
effect on kinase PAK1 [13]: no significant effects
